Test results published in patent EP2430044B1, “PEPTIDES INCREASING THE SECRETION AND/OR EXPRESSION OF AT LEAST ONE GAS[…] AND/OR INDUCING THE INCREASE OF MUCUS CELLS OR PANETH CELLS” (Institut National de la Recherche Agronomique (INRA), priority 2009, dated 2010).

How the values were obtained:
Format in all cases: cell-based, humaine
HT29-MTX = test: Mucin secretion by HT29-MTX cells (ELLA on culture supernatants); details: pre-incubation with cyprodime 10^-5 M
Procedure: (§1) Les cellules HT29-MTX et HT29-CI16E étaient cultivées en flasques de 25 cm^2 avec du milieu minimum essentiel DMEM supplémenté avec 10% de SVF (sérum de veau foetal) et 1 % d'antibiotiques (pénicilline 10 000 Ul/ml et streptomycine […]). Les cellules étaient incubées à 37°C dans une atmosphère humide (5 % de CO2 et […]). A confluence, les cellules soumises au préalable à l'action de la trypsine (trypsine-EDTA) étaient cultivées dans des plaques 12 puits à raison de 1 ml de milieu de culture complet par puits. Afin de maintenir les cellules dans des conditions optimales de croissance, le milieu de culture était changé tous les 2 jours.
Les expériences ont été réalisées sur les plaques 12 puits 21 jours après confluence des cellules. La veille de la stimulation, les plaques étaient cultivées sans SVF. Le pool peptidique total des yaourts ainsi que les différentes fractions lyophilisées étaient d'abord repris dans de l'eau stérile en solution 10 fois concentrée (10[Y]), [Y] correspondant à la concentration des peptides dans le yaourt initial). L'osmolarité et le pH des échantillons (ajusté à la neutralité par NaOH) étaient contrôlés à ce stade. Des dilutions successives ([Y], [Y]/2 et [Y]/5) étaient ensuite réalisées dans du milieu de culture dépourvu de SVF. Le jour de l'expérience, le milieu était aspiré puis les cellules étaient lavées avec du PBS à 37°C. […]

MUC2 = MUC2 expression in HT29-MTX cells (RT-PCR); details: with cyprodime 10^-5 M
Procedure: as §1
(§2) Les expériences ont été réalisées sur les plaques 12 puits 21 jours après confluence des cellules. La veille de la stimulation, les plaques étaient cultivées sans SVF. Le pool peptidique total des yaourts ainsi que les différentes fractions lyophilisées étaient d'abord repris dans de l'eau stérile en solution 10 fois concentrée (10[Y]), [Y] correspondant à la concentration des peptides dans le yaourt initial). L'osmolarité et le pH des échantillons (ajusté à la neutralité par NaOH) étaient contrôlés à ce stade. […]
(§3) Les ARN ont été isolés et rétro-transcrits comme décrit précédemment puis les ADNc ont été quantifiés en capillaires à l'aide du kit « FastStart DNA Master SYBR Green l » sur un appareil « lightCycler » (Roche). […]

MUC4 = MUC4 expression in HT29-MTX cells (RT-PCR)
Procedure: as §1, §2, §3

MUC5AC = MUC5AC expression in HT29-MTX cells (RT-PCR); details: with cyprodime, quantitative RT-PCR (Lightcycler)
Procedure: as §1, §2, §3

## COc1cccc2c1[C@]13CCN(CC4CC4)[C@H](C2)[C@]1(OC)CCC(=O)C3 [cyprodime]
HT29-MTX; fraction F3 at concentration Y
  sécrétion de mucines induite par la fraction F3: inhibe
HT29-MTX; then fraction C2 at concentration Y, 4 h
  sécrétion de mucines induite par la fraction C2: inhibe
MUC2
  effet de la fraction C2 sur l'expression de MUC2: aboli
MUC4; with cyprodime 10^-5 M
  effet de la fraction C2 sur l'expression de MUC4: aboli
MUC4; with cyprodime, quantitative RT-PCR (Lightcycler)
  augmentation du niveau des transcrits codant MUC4 induite par la fraction F3: Un résultat identique
MUC5AC
  augmentation du niveau des transcrits codant MUC5AC induite par la fraction F3: abolit
